Tests used:
[1] = system: PBMC of chronic lymphocytic leukemia (CLL) patients; assay: Viability of primary CLL cells in suspension culture; type: cell-based; details: Homo sapiens, CLL cell, 48 h
From the text: Hematological cell lines were acquired from the Leibniz Institute DSMZ-German Collection of Microorganisms and Cell Cultures (www.dsmz.de). Sixteen patients diagnosed with chronic lymphocytic leukemia at the Division of Hematology and Hemostaseology at the Vienna General Hospital and four healthy donors were included in the study. All participants signed informed consent according to the Declaration of Helsinki (Ethics Committee Nr: EK 1722/2012). Peripheral blood mononuclear cells (PBMC) were isolated using standardized Ficoll-Hypaque gradient centrifugation (Seromed, Berlin, Germany) and stored in liquid nitrogen until use. […]
Primary cells were incubated at a density of 300,000 cells per well in 96-well plates in a total volume of 100 μl of Gibco RPMI 1640+L-glutamine (PAA Laboratories) supplemented with 20% FBS gold with increasing concentrations of compounds for 48 h. […] Viability was measured using CellTiter-Blue Cell Viability Assay (Promega, Madison, Wis., USA) following the instructions of the manufacturers. Experiments with primary cells were done in triplicates, IC50 values were calculated from the mean values of all samples used in the various experiments using GraphPad Prism 5 software. […]

[2] = system: MEC1; assay: Viability test (CellTiter-Blue/EZ4U) on MEC1 cells, 48 h; type: cell-based, human; details: Homo sapiens, MEC1, 48 h, 48 h incubation; nd = no significant cytotoxic activity up to 100 μM
Protocol: (§1) JURKAT and CCRF-CEM (T-cell acute lymphoblastic leukemia), HL60 and K562 representing acute and chronic myeloid leukemia, respectively, the chronic lymphocytic leukemia cell line MEC-1, and the diffuse large B-cell lymphoma cell line U-2940 were cultured in Gibco RPMI 1640+GlutaMAX (Life Technologies, Carlsbad, Calif., USA) supplemented with 10% fetal bovine serum gold (FBS gold; PAA Laboratories, Pasching, Austria) and 1% PenStrep (100 U/ml penicillin and 100 μg/ml streptomycin; PAA Laboratories), and maintained at 37° C. in humidified atmosphere with 5% CO2. The diffuse large B-cell lymphoma cell line OCI-LY7 was cultured in Gibco IMDM+GlutaMAX and 25 mM HEPES (Life Technologies) containing 20% FBS gold and 1% PenStrep.
(§2) All experiments with hematological cell lines were done using phenol red-free RPMI 1640+L-glutamine (PAA Laboratories) supplemented with 1% PenStrep and 10% FBS gold, except experiments with OCI-Ly7 which were carried out in Gibco IMEM+GlutaMAX and 25 mM HEPES containing 20% FBS gold and 1% PenStrep. Cells were incubated in triplicates with increasing concentrations of the compounds for 48 h, changes in viability were determined using the cell proliferation and cytotoxicity assays EZ4U (Biomedica Group, Austria) and CellTiter-Blue Cell Viability Assay (Promega, Madison, Wis., USA) following instructions of the manufacturers. IC50 values were calculated from two independent experiments using GraphPad Prism 5 software.
Initially, compounds were biologically tested in six concentration steps (0.1 μM; 1 μM; 5 μM; 10 μM; 50 μM; and 100 μM) using the CellTiter-Blue Cell Viability Assay (Promega, Madison, Wis., USA) and an incubation time of 48 hours. […] IC50 values were calculated from at least two independent experiments with 3 replicates each. In order to evaluate the biologic activity of the new compounds, cytotoxicity was compared to that of fludarabine, an already approved drug for the treatment of various B-cell malignancies. […] Differences in IC50 values for the different cell types can be explained by the biological and genetic particularities of each subtype of B-cell Non-Hodgkin lymphoma (Stacchini A et al. Leukemia Res 1999, 23, 127-136; Sambade C et al. Int J Cancer 2006, 118, 555-563; Chang H et al. Leukemia lymphoma 1995, 19, 165-171; Tweeddale M E et al. Blood 1987, 69, 1307-1314; Tweeddale M et al. Blood 1989, 74, 572-578).

[3] = system: HL60; assay: Viability test on HL60 cells; type: cell-based, human
Protocol: as §1, with “The diffuse large B-cell lymphoma cell line OCI-LY7 was cultured in Gibco IMDM+GlutaMAX and 25 mM HEPES (Life Technologies) containing 20% FBS gold and 1% PenStrep.” left out
as §2, with “software. […]” for “software.”

[4] = system: PBMC of CLL patients cultured over a layer of mouse fibroblast cells (M2-10B4); assay: Viability of CLL cells in co-culture with M2-10B4 fibroblast cells; type: cell-based; details: Homo sapiens, M210B4, 48 h
Protocol: Primary cells were incubated at a density of 300,000 cells per well in 96-well plates in a total volume of 100 μl of Gibco RPMI 1640+L-glutamine (PAA Laboratories) supplemented with 20% FBS gold with increasing concentrations of compounds for 48 h. For co-culture experiments, 150,000 M2-10B4 mouse fibroblast cells were seeded into 12-well plates and allowed to form a confluent layer over night. Supernatant was replaced by 3 million primary cells in a total volume of 1 ml medium and incubated with increasing concentrations of compounds for 48 h. Viability was measured using CellTiter-Blue Cell Viability Assay (Promega, Madison, Wis., USA) following the instructions of the manufacturers. Experiments with primary cells were done in triplicates, IC50 values were calculated from the mean values of all samples used in the various experiments using GraphPad Prism 5 software.
As a last step, it has been sought to evaluate the cytotoxicity of compound 15 in primary cells and compare its activity to the impact of fludarabine. To this end, peripheral blood mononuclear cells (PBMC) of chronic lymphocytic leukemia (CLL) patients were used in two experimental settings. They were cultured in conventional suspension culture being exposed to increasing concentrations of drug. […]

CCOc1ccccc1C(=O)/C=C/c1cc2ccccc2[nH]1 [Compound 15, 1-(2-Ethoxyphenyl)-3-(1H-indole-2-yl)-2-propen-1-one]
IC50 [1]: 1180 nM | IC50 [2]: 22 nM | viability, % of control ([3]; HL60, at concentrations <1 μM): less than 30 % of control | IC50 ([3]; Homo sapiens, HL-60, myeloid leukemia, nd = no significant cytotoxic activity up to 100 μM): 20 nM | IC50 [4]: 680 nM

Reference: US10280156B2, “Heteroaromatic chalcone derivatives and their medical use” (Medizinische Universität Wien, priority 2014, dated 2019)
